In PubChem BioAssay (NCI):
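GI50 = concentration required for 50% inhibition of growth. At the TGI there is no net growth.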

Experiments:
Assay in all cases: NCI-60 cell line screen, 384-well format
786-0 renal = test system: 786-0 renal
A498 renal = test system: A498 renal
A549 NSCLC = test system: A549 NSCLC
ACHN renal = test system: ACHN renal
BT-549 breast = test system: BT-549 breast
CAKI-1 renal = test system: CAKI-1 renal
CCRF-CEM leukemia = test system: CCRF-CEM leukemia
DU-145 prostate = test system: DU-145 prostate
EKVX NSCLC = test system: EKVX NSCLC
HCT-116 colon = test system: HCT-116 colon
HCT-15 colon = test system: HCT-15 colon
HL-60(TB) leukemia = test system: HL-60(TB) leukemia
HOP-62 NSCLC = test system: HOP-62 NSCLC
HOP-92 NSCLC = test system: HOP-92 NSCLC
HS 578T breast = test system: HS 578T breast
HT29 colon = test system: HT29 colon
IGROV1 ovarian = test system: IGROV1 ovarian
K-562 leukemia = test system: K-562 leukemia
KM12 colon = test system: KM12 colon
LOX IMVI melanoma = test system: LOX IMVI melanoma
M14 melanoma = test system: M14 melanoma
MALME-3M melanoma = test system: MALME-3M melanoma
MCF7 breast = test system: MCF7 breast
MDA-MB-231 breast = test system: MDA-MB-231 breast
MDA-MB-435 melanoma = test system: MDA-MB-435 melanoma
MDA-MB-468 breast = test system: MDA-MB-468 breast
MOLT-4 leukemia = test system: MOLT-4 leukemia
NCI-H226 lung = test system: NCI-H226 lung
NCI-H23 lung = test system: NCI-H23 lung
NCI-H322M lung = test system: NCI-H322M lung
NCI-H522 lung = test system: NCI-H522 lung
NCI/ADR-RES ovarian = test system: NCI/ADR-RES ovarian
OVCAR-3 ovarian = test system: OVCAR-3 ovarian
OVCAR-4 ovarian = test system: OVCAR-4 ovarian
OVCAR-5 ovarian = test system: OVCAR-5 ovarian
OVCAR-8 ovarian = test system: OVCAR-8 ovarian
PC-3 prostate = test system: PC-3 prostate
RPMI-8226 leukemia = test system: RPMI-8226 leukemia
RXF 393 renal = test system: RXF 393 renal
SF-268 CNS = test system: SF-268 CNS
SF-295 CNS = test system: SF-295 CNS
SF-539 CNS = test system: SF-539 CNS
SK-MEL-2 melanoma = test system: SK-MEL-2 melanoma
SK-MEL-28 melanoma = test system: SK-MEL-28 melanoma
SK-OV-3 ovarian = test system: SK-OV-3 ovarian
SN12C renal = test system: SN12C renal
SNB-19 CNS = test system: SNB-19 CNS
SNB-75 CNS = test system: SNB-75 CNS
SW-620 colon = test system: SW-620 colon
T-47D breast = test system: T-47D breast
TK-10 renal = test system: TK-10 renal
U251 glioblastoma = test system: U251 glioblastoma
UACC-257 melanoma = test system: UACC-257 melanoma
UACC-62 melanoma = test system: UACC-62 melanoma
UO-31 renal = test system: UO-31 renal

## N[C@@H]1CCCC[C@H]1N.O=C([O-])C(=O)[O-].[Pt+4]
786-0 renal
  GI50: 3.2 µM
  TGI: 98.7 µM
A498 renal
  GI50: 939 nM
  TGI: 54.1 µM
A549 NSCLC
  GI50: 2610 nM
  TGI: > 100 µM
ACHN renal
  GI50: 2880 nM
  TGI: 20.4 µM
BT-549 breast
  GI50: 12.1 µM
  TGI: 27.8 µM
CAKI-1 renal
  GI50: 1030 nM
  TGI: 31.3 µM
CCRF-CEM leukemia
  GI50: 2130 nM
  TGI: 4.74 µM
DU-145 prostate
  GI50: 7.47 µM
  TGI: 36 µM
EKVX NSCLC
  GI50: > 100 µM
  TGI: > 100 µM
HCT-116 colon
  GI50: 3.36 µM
  TGI: > 100 µM
HCT-15 colon
  GI50: 4.11 µM
  TGI: 40.8 µM
HL-60(TB) leukemia
  GI50: 523 nM
  TGI: 1820 nM
HOP-62 NSCLC
  GI50: 7.92 µM
  TGI: > 100 µM
HOP-92 NSCLC
  GI50: 32.3 µM
  TGI: > 100 µM
HS 578T breast
  GI50: > 100 µM
  TGI: > 100 µM
HT29 colon
  GI50: 3.78 µM
  TGI: > 100 µM
IGROV1 ovarian
  GI50: 16.7 µM
  TGI: > 100 µM
K-562 leukemia
  GI50: 4.56 µM
  TGI: 21.5 µM
KM12 colon
  GI50: 20.8 µM
  TGI: > 100 µM
LOX IMVI melanoma
  GI50: 12.2 µM
  TGI: > 100 µM
M14 melanoma
  GI50: 8.78 µM
  TGI: 52.6 µM
MALME-3M melanoma
  GI50: 10.7 µM
  TGI: 22.8 µM
MCF7 breast
  GI50: 5.43 µM
  TGI: > 100 µM
MDA-MB-231 breast
  GI50: 25.8 µM
  TGI: > 100 µM
MDA-MB-435 melanoma
  GI50: 9.49 µM
  TGI: > 100 µM
MDA-MB-468 breast
  GI50: 2330 nM
  TGI: 7.94 µM
MOLT-4 leukemia
  GI50: 276 nM
  TGI: 700 nM
NCI-H226 lung
  GI50: 12.5 µM
  TGI: 48.4 µM
NCI-H23 lung
  GI50: 8.68 µM
  TGI: 28.8 µM
NCI-H322M lung
  GI50: > 100 µM
  TGI: > 100 µM
NCI-H522 lung
  GI50: 10.1 µM
  TGI: 21.7 µM
NCI/ADR-RES ovarian
  GI50: 20.2 µM
  TGI: > 100 µM
OVCAR-3 ovarian
  GI50: 8.13 µM
  TGI: 30.6 µM
OVCAR-4 ovarian
  GI50: 19.8 µM
  TGI: > 100 µM
OVCAR-5 ovarian
  GI50: 8.06 µM
  TGI: 47.8 µM
OVCAR-8 ovarian
  GI50: 6.15 µM
  TGI: > 100 µM
PC-3 prostate
  GI50: 8.53 µM
  TGI: > 100 µM
RPMI-8226 leukemia
  GI50: 403 nM
  TGI: 1850 nM
RXF 393 renal
  GI50: 10.6 µM
  TGI: 23.7 µM
SF-268 CNS
  GI50: 11 µM
  TGI: > 100 µM
SF-295 CNS
  GI50: 27.4 µM
  TGI: > 100 µM
SF-539 CNS
  GI50: 6.07 µM
  TGI: 35.5 µM
SK-MEL-2 melanoma
  GI50: 75.9 µM
  TGI: > 100 µM
SK-MEL-28 melanoma
  GI50: 14.6 µM
  TGI: 63.9 µM
SK-OV-3 ovarian
  GI50: 31 µM
  TGI: > 100 µM
SN12C renal
  GI50: 7.27 µM
  TGI: > 100 µM
SNB-19 CNS
  GI50: 58.3 µM
  TGI: > 100 µM
SNB-75 CNS
  GI50: 30 µM
  TGI: > 100 µM
SW-620 colon
  GI50: 951 nM
  TGI: 55.8 µM
T-47D breast
  GI50: 12.7 µM
  TGI: > 100 µM
TK-10 renal
  GI50: 11.2 µM
  TGI: > 100 µM
U251 glioblastoma
  GI50: 8.83 µM
  TGI: > 100 µM
UACC-257 melanoma
  GI50: 24.1 µM
  TGI: > 100 µM
UACC-62 melanoma
  GI50: 3.15 µM
  TGI: 25.1 µM
UO-31 renal
  GI50: 10.4 µM
  TGI: 25.5 µM
